Columns and labels:
human CK1 delta = target: T1, human CK1 delta (Homo sapiens, UniProt P48730); assay: FRET fluorescence test (Z'Lyte kinase assay Kit), peptide substrate SER/THR 11; assay type: biochemical; settings: peptide substrate 2 μM, ATP at 4 times the KM
T1 construct: purchased Invitrogen Corporation PV3665
Source text: The capacity of the compounds of the invention to inhibit the phosphorylation of casein by casein kinase 1 epsilon and delta may be evaluated using a FRET (“Fluorescence Resonance Energy Transfer) fluorescence test with the aid of the “Z'Lyte™ kinase assay Kit” (reference PV3670; Invitrogen Corporation™) according to the manufacturer's instructions.
The casein kinases 1 used are obtained from Invitrogen Corporation (human CK1 epsilon PV3500 and human CK1 delta PV3665).
A peptide substrate, labelled at both ends with a fluorophor donor group (coumarin) and a fluorophor acceptor group (fluorescein) constituting a FRET system is phosphorylated in the presence of ATP by casein kinase 1 epsilon or delta in the presence of increasing concentrations of compounds of the invention.
The mixture is treated with a site-specific protease that specifically cleaves the peptide substrate to form two fluorescent fragments having a large fluorescence emission ratio.
The fluorescence observed is thus related to the capacity of the products of the invention to inhibit the phosphorylation of the peptide substrate by casein kinase 1 epsilon or casein kinase 1 delta.
The compounds of the invention are dissolved at different concentrations starting with a 10 mM stock solution in DMSO diluted in a buffer containing 50 mM HEPS, pH 7.5, 1 m MEGTA, 0.01% Brij-35, 10 mM MgCl2 for casein kinase 1 epsilon and supplemented with Trizma Base (50 mM), pH 8.0, and NaN3 (0.01% final) for casein kinase 1 delta.
The phosphorylation of the peptide substrate SER/THR 11 obtained from Invitrogen Corporation™ is performed at a final concentration of 2 μM. The ATP concentration is 4 times the KM, this value being 2 μM for casein kinase 1 epsilon and 4 μM for casein kinase 1 delta.
The emitted fluorescence is measured at wavelengths of 445 and 520 nm (excitation at 400 nm).

[1] = target: T2, casein kinase 1 epsilon (CK1 epsilon) (Homo sapiens, UniProt P49674); assay: Filter-plate assay of ATP-33P for CK1 epsilon inhibitors (phosphorylation of casein); assay type: biochemical; settings: casein substrate, ATP-33P with 10 μM cold ATP, 2 hours at ambient temperature
T2 construct: Invitrogen Corporation (as an alternative)
Experimental: The capacity of the compounds of the invention to inhibit the phosphorylation of casein by casein kinase 1 epsilon and delta may be evaluated according to the procedure described in US 2005/0131012.
Filter-Plate Assay of ATP-^33P for the Screening of CK1 Epsilon Inhibitors:
The effect of the compounds on inhibition of the phosphorylation of casein by the enzyme casein kinase 1 epsilon (CK1 epsilon) is measured, using a casein assay with filtration of ATP-^33P in vitro.
Casein kinase 1 epsilon (0.58 mg/ml) is obtained via fermentation and purification processes performed according to methods that are well known to those skilled in the art, or may also be obtained from Invitrogen Corporation™ (human CK1 epsilon).
The compounds are tested at five different concentrations so as to generate IC50 values, i.e. the concentration at which a compound is capable of inhibiting the enzymatic activity by 50%, or alternatively the percentage of inhibition at a concentration of 10 micromolar.
“U”-bottomed Falcon plates are prepared by placing 5 μL of solutions of the compounds according to the invention at concentrations of 10, 1, 0.1, 0.01 or 0.001 μM in various wells. The solutions of the compounds according to the invention at these various concentrations are prepared by diluting in a test buffer (50 mM Tris, pH 7.5, […], 2 mM DTT and 1 mM EGTA) a stock solution in DMSO at a concentration of 10 mM. Next, 5 μL of dephosphorylated casein are added to a final concentration of 0.2 μg/μL, 20 μl of CK1 epsilon to a final concentration of 3 ng/μl, and 20 μl of ATP-^33P to a final concentration of 0.02 μCi/μl mixed with cold ATP (10 μM final—approximately 2×10^6 CPM per well). The final total test volume per well is equal to 50 μl.
The “U”-bottomed Falcon® test plate mentioned above is vortexed, and then incubated at ambient temperature for 2 hours. After 2 hours, the reaction is stopped by adding an ice-cold solution of 65 μl of ATP (2 mM) prepared in test buffer.
100 μl of the reaction mixture are then transferred from the “U”-bottomed Falcon® plate into Millipore® MAPH filter plates, preimpregnated with 25 μl of ice-cold 100% TCA. […]
The plates are left to dry overnight at ambient temperature. […] The radiation emitted by each well is then measured for 2 minutes in a Packard® Topcount NXT scintillation counter, in which the values of CPM/well are measured.
The percentage inhibition of the capacity of the enzyme to phosphorylate the substrate (casein) is determined for each concentration of compound tested. These inhibition data expressed as percentages are used to calculate the IC50 value for each compound compared with the controls.
The kinetic studies determined the KM value for ATP as being 21 μM in this test system.

T1 sequence (P48730 whole entry): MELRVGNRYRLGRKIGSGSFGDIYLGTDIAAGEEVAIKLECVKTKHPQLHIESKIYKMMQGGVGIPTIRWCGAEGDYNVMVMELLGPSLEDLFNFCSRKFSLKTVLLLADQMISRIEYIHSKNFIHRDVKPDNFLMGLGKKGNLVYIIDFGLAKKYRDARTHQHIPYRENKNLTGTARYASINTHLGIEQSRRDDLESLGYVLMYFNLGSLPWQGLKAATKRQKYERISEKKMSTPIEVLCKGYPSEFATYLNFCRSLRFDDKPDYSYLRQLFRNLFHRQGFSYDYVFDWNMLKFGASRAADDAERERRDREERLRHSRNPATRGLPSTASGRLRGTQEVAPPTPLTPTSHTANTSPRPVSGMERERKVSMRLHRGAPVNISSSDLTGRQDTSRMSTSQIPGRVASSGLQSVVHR
T2 sequence (P49674 whole entry): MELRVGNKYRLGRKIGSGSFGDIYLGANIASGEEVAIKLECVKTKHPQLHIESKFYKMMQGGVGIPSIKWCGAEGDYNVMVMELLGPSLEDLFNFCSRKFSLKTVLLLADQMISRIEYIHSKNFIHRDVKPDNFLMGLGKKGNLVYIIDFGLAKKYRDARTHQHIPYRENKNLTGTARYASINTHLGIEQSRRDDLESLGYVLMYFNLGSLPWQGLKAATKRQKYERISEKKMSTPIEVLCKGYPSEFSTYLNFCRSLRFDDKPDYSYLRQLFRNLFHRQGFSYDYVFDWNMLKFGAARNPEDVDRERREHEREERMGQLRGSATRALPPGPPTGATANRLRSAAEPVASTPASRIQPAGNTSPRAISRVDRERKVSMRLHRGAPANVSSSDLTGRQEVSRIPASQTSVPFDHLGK

IC50 (human CK1 delta): 19 nM
melting point: 261 to 264 °C
IC50 [1]: 5 to 8 nM
Compound: Fc1ccc(-c2nc3ccc(N4CCC(N5CCCC5)CC4)nn3c2-c2ccnc3[nH]ccc23)cc1 [Compound 36, 2-(4-Fluorophenyl)-6-(4-pyrrolidin-1-ylpiperidin-1-yl)-3-(1H-pyrrolo[2,3-b]pyridin-4-yl)imidazo[1,2-b]pyridazine]

Source: US8546395B2, “6-cycloamino-3-(1H-pyrrolo[2,3-b]pyridin-4-yl)imidazo[1,2-b]pyridazine derivatives, preparation thereof and therapeutic use thereof” (Sanofi, priority 2008, dated 2013)
